Consider twelve compounds from publication PMC10586439 (ACS Omega, 2023).

Where two headings read alike, the source gives them in different places.

For orientation: IC50 means the point on the concentration scale where inhibition reaches its midpoint. As usually defined, the inhibition is the drop in the measured response relative to a control, in per cent.

Assay [1] concerns MDA-MB-231 human breast carcinoma cell line. Nature of the assay: MTT cytotoxicity assay against MDA-MB-231 breast carcinoma cell line. It is filed as cell-based. On the technique in general: Tetrazolium assays rely on reduction of a dye to a coloured formazan, in cell work by metabolically active cells.
Assay [2] concerns normal MCF-10A breast cells. Nature of the assay: MTT cytotoxicity assay on normal MCF-10A breast cells. It is filed as cell-based. The note with it: for IC50: Homo sapiens, MCF-10A, read-out: IC50 value (μM) MCF-10A.
A further assay deals with β-tubulin (Homo sapiens, UniProt P07437+P68363). Nature of the assay: β-Tubulin polymerization inhibition. It is filed as biochemical. The settings on record: read-out: β-tubulin polymerization inhibition percentage.
Assay [3] relates to MDA-MB-231 cells. Nature of the assay: Cell cycle analysis by flow cytometry. It is filed as cell-based, human. For orientation: A flow cytometer gives signals particle by particle.
The subject of assay [4] is MDA-MB-231 cells. Kind of assay: Annexin V-FITC/PI apoptosis assay by flow cytometry. It is filed as cell-based, human. The note with it: MDA-MB-231, 48 h, compound at its IC50.
The mark [5] stands for this setting: MDA-MB-231, 24 h, read-out: IC50 value (μM) MDA-MB-231.
Setting [6] is: MDA-MB-231, read-out: IC50 against MDA-MB-231 cells.

β-tubulin, sequence (P07437 whole entry): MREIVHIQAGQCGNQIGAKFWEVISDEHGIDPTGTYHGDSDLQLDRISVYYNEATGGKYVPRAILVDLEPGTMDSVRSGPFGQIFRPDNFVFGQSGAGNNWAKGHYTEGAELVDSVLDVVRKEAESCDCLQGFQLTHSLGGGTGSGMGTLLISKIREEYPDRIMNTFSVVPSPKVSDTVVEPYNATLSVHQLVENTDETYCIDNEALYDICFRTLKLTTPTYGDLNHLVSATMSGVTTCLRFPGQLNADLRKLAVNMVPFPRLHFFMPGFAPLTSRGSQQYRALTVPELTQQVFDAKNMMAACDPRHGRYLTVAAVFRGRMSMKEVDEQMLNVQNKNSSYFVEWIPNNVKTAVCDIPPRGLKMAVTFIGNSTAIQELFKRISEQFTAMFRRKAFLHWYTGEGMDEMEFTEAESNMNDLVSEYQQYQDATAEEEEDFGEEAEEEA
β-tubulin, sequence (P68363 whole entry): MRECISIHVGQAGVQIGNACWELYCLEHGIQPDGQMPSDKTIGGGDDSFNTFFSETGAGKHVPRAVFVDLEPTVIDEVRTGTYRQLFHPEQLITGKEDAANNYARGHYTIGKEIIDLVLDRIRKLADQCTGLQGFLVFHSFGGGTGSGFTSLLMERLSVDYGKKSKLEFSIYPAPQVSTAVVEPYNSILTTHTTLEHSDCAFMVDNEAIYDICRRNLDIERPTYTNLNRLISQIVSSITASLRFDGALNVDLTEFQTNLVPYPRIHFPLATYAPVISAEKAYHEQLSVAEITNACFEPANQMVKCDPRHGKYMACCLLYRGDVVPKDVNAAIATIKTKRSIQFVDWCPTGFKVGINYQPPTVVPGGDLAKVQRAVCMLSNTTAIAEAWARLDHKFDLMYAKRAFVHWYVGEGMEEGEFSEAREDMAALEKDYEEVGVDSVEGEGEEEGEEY

`COc1ccc(C(=O)N/C(=C\c2ccc(Cl)cc2)C(=O)O)cc1OC` [4a, (Z)-3-(4-Chlorophenyl)-2-(3,4-dimethoxybenzamido)acrylic Acid]: the IC50 is 8.24 ± 0.37 µM in assay [1] (setting [5]) and 8.55 to 15.9 µM in assay [1] (setting [6]).

Turning to `COc1cc(C(=O)N/C(=C\c2ccc(Cl)cc2)C(=O)O)cc(OC)c1OC` [4b, (Z)-3-(4-Chlorophenyl)-2-(3,4,5-trimethoxybenzamido)acrylic Acid], the figures for the IC50 in assay [2] and in assay [1] (setting [5]) were 23.3 ± 0.32 µM and 3.24 ± 0.13 µM, respectively. Further, in assay [2] (MCF-10A versus MDA-MB-231), the “mean tumor selectivity index” value was 7.2. Moreover, the inhibition at 25 µM on β-tubulin stood at 80.1%. Also, the “percentage of cells in G2/M phase” value in the assay with MDA-MB-231 cells [3] (MDA-MB-231, 48 h, compound at its IC50, untreated control 7.35%) is given as 28.08%. The “cell accumulation at G2/M stage, times higher than untreated control” value with MDA-MB-231 cells [3] (MDA-MB-231, compound at its IC50) is given as 3.82 times. This compound gave a late-secondary cellular apoptosis in the assay with MDA-MB-231 cells [4] (untreated control 0.24%) of 12.62%. Further, the early primary apoptosis in the assay with MDA-MB-231 cells [4] (untreated control 0.69%) is listed as 8.09%.

Take `COC(=O)/C(=C/c1ccc(Cl)cc1)NC(=O)c1ccc(OC)c(OC)c1` [5a, (Z)-Methyl 3-(4-Chlorophenyl)-2-(3,4-dimethoxybenzamido)acrylate]: the inhibition at 25 µM on β-tubulin turned out to be 57.1%. Besides, in assay [1] (setting [5]), the IC50 stood at 4.84 ± 0.19 µM.

`CCOC(=O)/C(=C/c1ccc(Cl)cc1)NC(=O)c1ccc(OC)c(OC)c1` [5b, (Z)-Ethyl 3-(4-Chlorophenyl)-2-(3,4-dimethoxybenzamido)acrylate]: in assay [1] (setting [5]), the IC50 stood at 15.8 ± 0.41 µM.

For `CCCOC(=O)/C(=C/c1ccc(Cl)cc1)NC(=O)c1ccc(OC)c(OC)c1` [5c, (Z)-Propyl 3-(4-Chlorophenyl)-2-(3,4-dimethoxybenzamido)acrylate], the IC50 in assay [1] (setting [5]) was found to be 14.3 ± 0.33 µM.

Consider `CCCCOC(=O)/C(=C/c1ccc(Cl)cc1)NC(=O)c1ccc(OC)c(OC)c1` [5d, (Z)-Butyl 3-(4-Chlorophenyl)-2-(3,4-dimethoxybenzamido)acrylate], for which the values for the IC50 in assay [1] (setting [5]) and in assay [1] (setting [6]) were 45.9 ± 1.02 µM and 45.8 µM, respectively.

`COC(=O)/C(=C/c1ccc(Cl)cc1)NC(=O)c1cc(OC)c(OC)c(OC)c1` [5e, (Z)-Methyl 3-(4-Chlorophenyl)-2-(3,4,5-trimethoxybenzamido)acrylate]: the inhibition at 25 µM on β-tubulin was 77.8%. Besides, the IC50 in assay [1] (setting [5]) is 4.03 ± 0.16 µM; in assay [1] (setting [6]) it was 4.06 µM.

Regarding `CCOC(=O)/C(=C/c1ccc(Cl)cc1)NC(=O)c1cc(OC)c(OC)c(OC)c1` [5f, (Z)-Ethyl 3-(4-Chlorophenyl)-2-(3,4,5-trimethoxybenzamido)acrylate], the IC50 in assay [1] (setting [5]) amounted to 11.6 ± 0.24 µM.

Regarding `CCCOC(=O)/C(=C/c1ccc(Cl)cc1)NC(=O)c1cc(OC)c(OC)c(OC)c1` [5g, (Z)-Propyl 3-(4-Chlorophenyl)-2-(3,4,5-trimethoxybenzamido)acrylate], the IC50 in assay [1] (setting [5]) was determined as 23.2 ± 0.4 µM.

`COc1cc(C(=O)N/C(=C\c2ccc(Cl)cc2)C(=O)OC(C)C)cc(OC)c1OC` [5h, (Z)-Isopropyl 3-(4-Chlorophenyl)-2-(3,4,5-trimethoxybenzamido)acrylate]: the IC50 in assay [1] (setting [5]) came to 25.2 ± 0.51 µM.

Take `CCCCOC(=O)/C(=C/c1ccc(Cl)cc1)NC(=O)c1cc(OC)c(OC)c(OC)c1` [5i, (Z)-Butyl 3-(4-Chlorophenyl)-2-(3,4,5-trimethoxybenzamido)acrylate]: in assay [1] (setting [5]), the IC50 was determined as 28.1 ± 0.56 µM.

Turning to `COc1ccc(/C=C\c2cc(OC)c(OC)c(OC)c2)cc1O` [CA-4, combretastatin A-4, reference compound], the IC50 in assay [2] stood at 14.2 ± 0.29 µM; in assay [1] (setting [5]), 1.27 µM. The inhibition at 25 µM at β-tubulin amounted to 89.8%.
